Test results as given in ChEMBL document CHEMBL1909046, “DrugMatrix in vitro pharmacology data”.

Legend:
[1] = target: T1, Alpha-1A adrenergic receptor (Rattus norvegicus, UniProt P43140); experiment: DRUGMATRIX: Alpha-1A adrenergic receptor radioligand binding (ligand: prazosin); format: cell membranes, Wistar, Submaxillary gland, Membrane; settings: Not Active = under 50% inhibition at 10 µM
T1 sequence (P43140 whole entry): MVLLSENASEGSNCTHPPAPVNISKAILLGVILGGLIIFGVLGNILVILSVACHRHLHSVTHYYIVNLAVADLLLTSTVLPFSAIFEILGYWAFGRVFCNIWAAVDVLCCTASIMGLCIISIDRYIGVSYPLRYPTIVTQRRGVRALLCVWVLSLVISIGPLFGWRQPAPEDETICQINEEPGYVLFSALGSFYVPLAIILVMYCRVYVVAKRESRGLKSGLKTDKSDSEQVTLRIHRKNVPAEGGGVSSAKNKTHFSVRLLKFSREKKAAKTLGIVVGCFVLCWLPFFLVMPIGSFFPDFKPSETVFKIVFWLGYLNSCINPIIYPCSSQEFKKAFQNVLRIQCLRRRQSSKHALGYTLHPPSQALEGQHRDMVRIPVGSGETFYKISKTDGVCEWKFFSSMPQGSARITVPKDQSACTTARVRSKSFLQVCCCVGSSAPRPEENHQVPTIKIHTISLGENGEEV

B2 bradykinin receptor = target: T2, B2 bradykinin receptor (Homo sapiens, UniProt P30411); format: cell membranes, Membrane; settings: chem-1; note: in other assays of this panel Not Active means under 50% inhibition at 10 µM
T2 sequence (P30411 whole entry): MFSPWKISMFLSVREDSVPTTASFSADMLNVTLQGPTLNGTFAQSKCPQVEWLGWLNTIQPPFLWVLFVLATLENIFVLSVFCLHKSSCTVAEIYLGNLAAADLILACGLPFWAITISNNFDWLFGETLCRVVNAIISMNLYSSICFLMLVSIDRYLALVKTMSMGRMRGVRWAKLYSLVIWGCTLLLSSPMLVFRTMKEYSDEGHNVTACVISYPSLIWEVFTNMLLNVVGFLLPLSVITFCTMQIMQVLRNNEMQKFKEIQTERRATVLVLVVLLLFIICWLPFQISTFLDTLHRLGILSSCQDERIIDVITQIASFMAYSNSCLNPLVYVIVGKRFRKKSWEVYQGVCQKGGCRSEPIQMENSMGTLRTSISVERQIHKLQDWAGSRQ

[2] = target: T3, Muscarinic acetylcholine receptor M4 (Homo sapiens, UniProt P08173); format: cell membranes, CHO-K1, Membrane; note: in other assays of this panel Not Active means under 50% inhibition at 10 µM
T3 sequence (P08173 whole entry): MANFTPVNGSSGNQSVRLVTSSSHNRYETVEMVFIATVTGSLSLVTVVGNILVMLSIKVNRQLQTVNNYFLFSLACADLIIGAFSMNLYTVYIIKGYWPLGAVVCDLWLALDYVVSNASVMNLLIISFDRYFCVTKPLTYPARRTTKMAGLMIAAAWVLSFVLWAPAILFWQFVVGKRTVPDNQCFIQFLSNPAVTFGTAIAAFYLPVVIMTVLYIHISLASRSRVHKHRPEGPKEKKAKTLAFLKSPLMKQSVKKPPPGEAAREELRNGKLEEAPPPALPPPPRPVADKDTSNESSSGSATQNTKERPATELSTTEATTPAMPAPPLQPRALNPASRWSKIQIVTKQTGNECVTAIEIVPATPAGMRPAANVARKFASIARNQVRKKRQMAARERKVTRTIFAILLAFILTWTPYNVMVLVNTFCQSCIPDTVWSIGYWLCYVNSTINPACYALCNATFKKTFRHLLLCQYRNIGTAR

[3] = target: T4, Angiotensin-converting enzyme (Oryctolagus cuniculus, UniProt P12822); format: tissue-based, Lung;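 note: enzymatic inhibition of angiotensin-converting enzyme measured with FAPGG as the substrate; in other assays of this panel Not Active means under 50% inhibition at 10 µM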
T4 sequence (P12822 whole entry): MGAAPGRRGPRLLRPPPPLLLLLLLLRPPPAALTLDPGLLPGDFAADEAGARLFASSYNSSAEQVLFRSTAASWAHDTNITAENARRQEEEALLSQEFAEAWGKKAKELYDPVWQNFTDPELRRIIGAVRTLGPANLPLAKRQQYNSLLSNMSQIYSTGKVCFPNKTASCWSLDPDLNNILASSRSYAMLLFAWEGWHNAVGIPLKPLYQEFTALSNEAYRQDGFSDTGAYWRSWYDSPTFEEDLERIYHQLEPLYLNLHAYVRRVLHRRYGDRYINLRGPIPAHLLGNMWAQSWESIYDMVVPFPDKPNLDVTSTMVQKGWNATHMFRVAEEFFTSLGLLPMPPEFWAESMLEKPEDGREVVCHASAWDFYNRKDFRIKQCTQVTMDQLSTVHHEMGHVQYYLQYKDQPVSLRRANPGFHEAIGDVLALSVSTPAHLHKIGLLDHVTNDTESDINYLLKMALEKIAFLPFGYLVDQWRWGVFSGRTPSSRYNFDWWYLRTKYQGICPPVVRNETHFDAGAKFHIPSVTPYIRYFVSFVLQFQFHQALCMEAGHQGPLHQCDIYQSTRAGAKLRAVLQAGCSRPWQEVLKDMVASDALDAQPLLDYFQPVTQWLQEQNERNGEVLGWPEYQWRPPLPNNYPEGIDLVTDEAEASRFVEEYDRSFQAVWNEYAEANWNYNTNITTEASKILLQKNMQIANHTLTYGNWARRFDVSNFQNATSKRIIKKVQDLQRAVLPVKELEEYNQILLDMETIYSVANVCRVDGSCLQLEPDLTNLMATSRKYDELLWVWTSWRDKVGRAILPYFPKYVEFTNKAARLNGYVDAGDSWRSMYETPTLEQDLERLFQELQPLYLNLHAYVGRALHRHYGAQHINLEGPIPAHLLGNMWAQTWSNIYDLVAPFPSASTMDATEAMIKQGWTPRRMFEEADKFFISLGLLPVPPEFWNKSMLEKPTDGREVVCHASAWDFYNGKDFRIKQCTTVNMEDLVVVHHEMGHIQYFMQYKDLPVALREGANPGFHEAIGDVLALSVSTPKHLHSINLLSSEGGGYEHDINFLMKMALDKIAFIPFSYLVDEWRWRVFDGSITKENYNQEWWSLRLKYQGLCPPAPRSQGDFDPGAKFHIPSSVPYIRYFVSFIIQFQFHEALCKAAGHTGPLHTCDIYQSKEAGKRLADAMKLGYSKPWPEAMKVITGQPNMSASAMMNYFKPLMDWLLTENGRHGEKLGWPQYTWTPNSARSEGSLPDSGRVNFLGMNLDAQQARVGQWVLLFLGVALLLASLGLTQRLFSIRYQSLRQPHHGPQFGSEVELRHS

Compound | IC50 [1] | IC50 (B2 bradykinin receptor) | IC50 ([2]; cho-k1) | IC50 [3] | Ki [1] | Ki (B2 bradykinin receptor) | Ki ([2]; cho-k1) | Ki [3] | IC50 ([1]; read-out: IC50) | Ki ([1]; read-out: Ki) | IC50 ([2]; read-out: IC50) | Ki ([2]; read-out: Ki)
COc1cc([C@@H]2c3cc4c(cc3[C@@H](O[C@@H]3O[C@@H]5CO[C@@H](C)O[C@H]5[C@H](O)[C@H]3O)[C@H]3COC(=O)[C@H]23)OCO4)cc(OC)c1O [ETOPOSIDE] | Not Active | Not Active | Not Active | Not Active | – | – | – | – | – | – | – | –
CCC1(C)CC(=O)NC1=O (stereo unspecified) [ETHOSUXIMIDE] | Not Active | Not Active | Not Active | Not Active | – | – | – | – | – | – | – | –
Cc1nnc2n1-c1ccc(Cl)cc1C(c1ccccc1)=NC2 [ALPRAZOLAM] | Not Active | Not Active | Not Active | Not Active | – | – | – | – | – | – | – | –
CC(C)=CCC/C(C)=C/CO [GERANIOL] | Not Active | Not Active | Not Active | Not Active | – | – | – | – | – | – | – | –
COc1ccc(C(=O)N2CCCC2=O)cc1 | Not Active | Not Active | Not Active | Not Active | – | – | – | – | – | – | – | –
GENTAMICIN | Not Active | Not Active | Not Active | Not Active | Not Active | Not Active | Not Active | Not Active | – | – | – | –
CC(C)NNC(=O)c1ccncc1 [IPRONIAZID] | Not Active | Not Active | Not Active | Not Active | – | – | – | – | – | – | – | –
CCCNCC(O)COc1ccccc1C(=O)CCc1ccccc1 (stereo unspecified) [PROPAFENONE] | – | Not Active | Not Active | Not Active | – | – | – | – | 6150 nM | 2490 nM | – | –
O=c1cc(N2CCOCC2)oc2c(-c3ccccc3)cccc12 [LY-294002] | Not Active | Not Active | Not Active | Not Active | – | – | – | – | – | – | – | –
NCCCC(O)(P(=O)(O)O)P(=O)(O)O [ALENDRONIC ACID] | Not Active | Not Active | Not Active | Not Active | – | – | – | – | – | – | – | –
Nc1ccc2c3c(cccc13)C(=O)NC2=O | Not Active | Not Active | Not Active | Not Active | – | – | – | – | – | – | – | –
CC(C)(C)NC(=O)[C@H]1CC[C@H]2[C@@H]3CC[C@H]4NC(=O)C=C[C@]4(C)[C@H]3CC[C@]12C [FINASTERIDE] | Not Active | Not Active | Not Active | Not Active | – | – | – | – | – | – | – | –
CC[C@H](C)[C@H]1O[C@]2(C=C[C@@H]1C)C[C@@H]1C[C@@H](C/C=C(\C)[C@@H](O[C@H]3C[C@H](OC)[C@@H](O[C@H]4C[C@H](OC)[C@@H](O)[C@H](C)O4)[C@H](C)O3)[C@@H](C)/C=C/C=C3\CO[C@@H]4[C@H](O)C(C)=C[C@@H](C(=O)O1)[C@]34O)O2.CO[C@H]1C[C@H](O[C@H]2[C@H](C)O[C@@H](O[C@@H]3/C(C)=C/C[C@@H]4C[C@@H](C[C@]5(C=C[C@H](C)[C@@H](C(C)C)O5)O4)OC(=O)[C@@H]4C=C(C)[C@@H](O)[C@H]5OC/C(=C\C=C\[C@@H]3C)[C@]54O)C[C@@H]2OC)O[C@@H](C)[C@@H]1O [ABAMECTIN] | Not Active | Not Active | Not Active | Not Active | – | – | – | – | – | – | – | –
Cn1c(=O)c2[nH]cnc2n(C)c1=O.Cn1c(=O)c2[nH]cnc2n(C)c1=O.NCCN [AMINOPHYLLINE] | Not Active | Not Active | Not Active | Not Active | – | – | – | – | – | – | – | –
C#C[C@]1(OC(C)=O)CC[C@H]2[C@@H]3CCC4=C[C@@H](OC(C)=O)CC[C@@H]4[C@H]3CC[C@@]21C [ETHYNODIOL DIACETATE] | Not Active | Not Active | Not Active | Not Active | – | – | – | – | – | – | – | –
CN/C(=N\CCSCc1nc[nH]c1C)NC#N [CIMETIDINE] | Not Active | Not Active | Not Active | Not Active | – | – | – | – | – | – | – | –
COc1ccc2c3c1O[C@H]1C[C@@H](O)C=C[C@@]31CCN(C)C2 [GALANTAMINE] | Not Active | Not Active | Not Active | Not Active | – | – | – | – | – | – | – | –
OC(CCCN1CCCCC1)(c1ccccc1)c1ccccc1 [DIPHENIDOL] | Not Active | Not Active | – | Not Active | – | – | – | – | – | – | 271 nM | 38 nM
CCC(=O)O[C@]1(C(=O)CCl)[C@@H](C)C[C@H]2[C@@H]3CCC4=CC(=O)C=C[C@]4(C)[C@@]3(F)[C@@H](O)C[C@@]21C [CLOBETASOL PROPIONATE] | Not Active | Not Active | Not Active | Not Active | – | – | – | – | – | – | – | –
CCCN(CCC)S(=O)(=O)c1ccc(C(=O)O)cc1 [PROBENECID] | Not Active | Not Active | Not Active | Not Active | – | – | – | – | – | – | – | –
O=C(O)CCNC(=O)c1ccccc1 [BETAMIPRON] | Not Active | Not Active | Not Active | Not Active | – | – | – | – | – | – | – | –
C[C@H]1O[C@@H](n2cc(F)c(=O)[nH]c2=O)[C@H](O)[C@@H]1O [DOXIFLURIDINE] | Not Active | Not Active | Not Active | Not Active | – | – | – | – | – | – | – | –
CC[C@H]1CN2CCc3cc(OC)c(OC)cc3[C@@H]2C[C@@H]1C[C@H]1NCCc2cc(OC)c(OC)cc21 [EMETINE] | – | Not Active | Not Active | Not Active | – | – | – | – | 6530 nM | 2640 nM | – | –
O=c1cnn([C@@H]2O[C@H](CO)[C@@H](O)[C@H]2O)c(=O)[nH]1 [6-AZAURIDINE] | Not Active | Not Active | Not Active | Not Active | – | – | – | – | – | – | – | –
COC(=O)CCc1ccc(OCC(O)CNC(C)C)cc1 (stereo unspecified) [ESMOLOL] | Not Active | Not Active | Not Active | Not Active | – | – | – | – | – | – | – | –
C[C@@H]1O[C@@H](O[C@@H]2C=C3CC[C@@H]4[C@H](CC[C@]5(C)[C@@H](c6ccc(=O)oc6)CC[C@]45O)[C@@]3(C)CC2)[C@H](O)[C@H](O)[C@H]1O [PROSCILLARIDIN] | Not Active | Not Active | Not Active | Not Active | – | – | – | – | – | – | – | –
